In PubChem BioAssay AID1963422 (Molecular Pharmacology Branch, DTP, NCI, 2024):

Test system: 463943-066-T-J2-PDC complex spheroid growth
Experiment: Anticancer human tumor 463943-066-T-J2-PDC patient-derived colon adenocarcinoma cell line growth inhibition [Asc]
Settings: for IC50: curve of first compound; for viability, T/C: stronger effect = lower value
Procedure: Multicellular complex tumor spheroid response to apoptosis pathway targeting inhibitors Alrizomadlin, Pelcitoclax, and Dasminapant in combination with a variety of drugs and investigational agents in selected tumor cell lines
The MDM2 inhibitor alrizomadlin, the Bcl-2/Bcl-xL inhibitor pelcitoclax, and the IAPs inhibitor dasminapant were evaluated both individually and in combination with standard of care and investigational anticancer small molecules within a complex spheroid model of solid tumors. . Complex spheroids include a stromal component modeled by human endothelial cells (HUVEC) and fibroblasts modeled by human mesenchymal stem cells (MSCs). The concentration ranges selected for each drug and investigational agent were based upon clinically achievable concentrations if the clinical Cmax of the agent was known.
Compounds. The drugs and investigational agents: alrizomadlin (APG-115; NSC831270), pelcitoclax (APG-1252; NSC835773), dasminapant (APG-1387;NSC834197), TAK-243 (NSC785004), copanlisib (NSC809693), olaparib (NSC753686), talazoparib (NSC767125), cobimetinib (NSC 768068), eltanexor (KPT-8602, NSC 794443), abemaciclib (NSC 768073), sotorasib (NSC818433), adagrasib (NSC 831453), MRTX-1133 (NSC 836407), Iadademestat (ORY1001, NSC 806812), and RMC-4630 (NSC839698), were obtained from the NCI Developmental Therapeutics Program Chemical Repository. The FDA-approved anticancer drug set is available from the Developmental Therapeutics Program at https://dtp.cancer.gov/organization/dscb/obtaining/available plates.htm. […] The stock solutions were prepared in dimethyl sulfoxide (DMSO, Sigma-Aldrich, St. Louis, MO, cat. D2650) at 800-fold the tested concentration and stored at -70 degrees C prior to their use. All drugs and investigational agents were tested over a range starting from a high concentration at or near the clinical Cmax and decreasing in half-log increments. If the clinical Cmax for an agent had not been determined, the highest concentration tested was 10 microM.
The patient-derived cancer (PDC) cell lines include five colon adenocarcinomas: 186277-243-T-J2-PDC, 616215-338-R-J1-PDC, 439559-082-T-J2-PDC, 463943-066-T-J2-PDC, and 519858-162-T-J1-PDC; three pancreatic carcinomas: 323965-272-R-J2-PDC, 521955-158-R6-J3-PDC, and 521955-158-R2-J5-PDC; two uterine sarcomas: 327498-152-R-J2-PDC and 993429-296-R-J1-PDC; two rhabdomyosarcomas: 755483-174-R-J1-PDC and 772245-204-R-J1-PDC; two soft tissue sarcomas: 126254-015-R-J1-PDC and 494315-158-R-J1-PDC; two malignant fibrous histiocytomas: 317291-083-R-J1-PDC and 596521-263-R-J1-PDC; two breast carcinomas: 171881-019-R-J1-PDC and 885512-296-R-J2-PDC; and one ovarian carcinoma: 6556581-035-R-J-PDC were obtained from the NCI PDMR, (https://pdmr.cancer.gov). The established cell lines HSSY-2 synovial sarcoma (RRID:CVCL 8719), SYO-1 synovial sarcoma (RRID:CVCL_7146), MPNST malignant peripheral neural sheath tumor were obtained from the Sloan Kettering Institute. The following established cell lines were purchased from the American Type Culture Collection (ATCC, Manassas, VA), Sor the received from the NCI repository:, PANC-1 pancreatic carcinoma (CRL-1469, RRID:CVCL_0480), OVCAR-5 ovarian carcinoma (RRID:CVCL_1628), OVCAR-8 ovarian carcinoma (RRID:CVCL_1629), , MCF-7 breast carcinoma (CRL-12584, RRID:CVCL_0031), MDA-MB-231 breast carcinoma (CRL-12532, RRID:CVCL_0062), NCI-H1876 small cell lung carcinoma (CRL-5902, RRID:CVCL_1503), NCI-H510A small cell lung carcinoma (HTB-184, RRID:CVCL_1565), NCI-H1417 (CRL-5869, RRID:CVCL_1469), and NCI-H196 small cell lung carcinoma (CRL-5823, RRID:CVCL_1509). Dr. Peter Houghton (Greehey Children's Cancer Research Institute, University of Texas Health Science Center, San Antonio, TX) provided Rh-18 rhabdomyosarcoma (RRID:CVCL_1659). Pooled donor human umbilical vein endothelial cells (HUVEC, Lonza, cat. CC-2519) and human mesenchymal stem cells (hMSC, Lonza, cat. PT-2501) were purchased from Lonza (Walkersville, MD).
Cell Culture. […]
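Also: compound exposure lasted 7 days.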
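For viability, T/C in this document: 100% = DMSO vehicle control wells.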

O=C(c1ccc(F)c(F)c1Nc1ccc(I)cc1F)N1CC(O)([C@@H]2CCCCN2)C1 + CCN1C(C(=O)NC23CCC(C(=O)O)(CC2)CC3)C(c2cccc(Cl)c2F)C2(C(=O)Nc3cc(Cl)ccc32)C12CCCCC2
IC50 (second compound 0.00949 µM): 188 nM | IC50 (second compound 0.03 µM): 133 nM | IC50 (second compound 0.0949 µM): 117 nM | IC50 (second compound 0.3 µM): 70.6 nM | IC50 (second compound 0.949 µM): 34.9 nM | IC50 (second compound 3 µM): 17.7 nM | viability, T/C (second compound 0.00949 µM, first compound 0.00316 µM): 86.3% | viability, T/C (second compound 0.00949 µM, first compound 0.01 µM): 78.7% | viability, T/C (second compound 0.00949 µM, first compound 0.0316 µM): 74.2% | viability, T/C (second compound 0.00949 µM, first compound 0.1 µM): 63.5% | viability, T/C (second compound 0.00949 µM, first compound 0.316 µM): 39.1% | viability, T/C (second compound 0.00949 µM, first compound 1 µM): 27.9% | viability, T/C (second compound 0.03 µM, first compound 0.00316 µM): 93.5% | viability, T/C (second compound 0.03 µM, first compound 0.01 µM): 77.5% | viability, T/C (second compound 0.03 µM, first compound 0.0316 µM): 63.7% | viability, T/C (second compound 0.03 µM, first compound 0.1 µM): 56.2% | viability, T/C (second compound 0.03 µM, first compound 0.316 µM): 40% | viability, T/C (second compound 0.03 µM, first compound 1 µM): 29% | viability, T/C (second compound 0.0949 µM, first compound 0.00316 µM): 84.5% | viability, T/C (second compound 0.0949 µM, first compound 0.01 µM): 74.7% | viability, T/C (second compound 0.0949 µM, first compound 0.0316 µM): 65.7% | viability, T/C (second compound 0.0949 µM, first compound 0.1 µM): 50.8% | viability, T/C (second compound 0.0949 µM, first compound 0.316 µM): 39.4% | viability, T/C (second compound 0.0949 µM, first compound 1 µM): 28.2% | viability, T/C (second compound 0.3 µM, first compound 0.00316 µM): 79.5% | viability, T/C (second compound 0.3 µM, first compound 0.01 µM): 65.2% | viability, T/C (second compound 0.3 µM, first compound 0.0316 µM): 54.9% | viability, T/C (second compound 0.3 µM, first compound 0.1 µM): 50.5% | viability, T/C (second compound 0.3 µM, first compound 0.316 µM): 37.8% | viability, T/C (second compound 0.3 µM, first compound 1 µM): 29.6% | viability, T/C (second compound 0.949 µM, first compound 0.00316 µM): 67.8% | viability, T/C (second compound 0.949 µM, first compound 0.01 µM): 60% | viability, T/C (second compound 0.949 µM, first compound 0.0316 µM): 48.3% | viability, T/C (second compound 0.949 µM, first compound 0.1 µM): 44.1% | viability, T/C (second compound 0.949 µM, first compound 0.316 µM): 39.5% | viability, T/C (second compound 0.949 µM, first compound 1 µM): 32.4% | viability, T/C (second compound 3 µM, first compound 0.00316 µM): 65% | viability, T/C (second compound 3 µM, first compound 0.01 µM): 55.7% | viability, T/C (second compound 3 µM, first compound 0.0316 µM): 44.2% | viability, T/C (second compound 3 µM, first compound 0.1 µM): 40.4% | viability, T/C (second compound 3 µM, first compound 0.316 µM): 36.6% | viability, T/C (second compound 3 µM, first compound 1 µM): 33.8%
